Columns and labels:
Format in all cases: in vivo
[1] = test system: Solanum nigrum (SOLNI); assay: Post-emergence biological efficacy, glasshouse pot test; settings: 312 h
Procedure, shortened: (§1)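 Scored 13 days after spraying on a 0 (no damage) to 100 (total damage) scale. Treatment was a post-emergence spray at 1000 or 250 g/ha, from acetone/water 50:50 plus 0.5% Tween 20, onto 8-day-old plants in soil pots. Growth at 24/16° C, 14 h photoperiod, 65% humidity, watered twice daily.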

[2] = test system: Amaranthus retoflexus (AMARE); assay: as above; settings: Amaranthus retroflexus, 312 h
Procedure, shortened: as §1

[3] = test system: Setaria faberi (SETFA); assay: as above; settings: 312 h
Procedure, shortened: as §1

[4] = test system: Echinochloa crus-galli (ECHCG); assay: as above; settings: 312 h
Procedure, shortened: as §1

[5] = test system: Alopecurus myosuroides (ALOMY); assay: as above; settings: 312 h
Procedure, shortened: as §1

[6] = test system: Ipomea hederaceae (IPOHE); assay: as above; settings: Ipomoea hederacea, 312 h
Procedure, shortened: as §1

[7] = test system: Solanum nigrum (SOLNI); assay: Pre-emergence biological efficacy, glasshouse pot test; settings: 312 h
Procedure, shortened: (§2)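 Damage was rated on a 0–100 scale 13 days after treatment, with plants kept at 24/16° C, 14 h light and 65% humidity. The pre-emergence spray, at 1000 or 250 g/ha in acetone/water 50:50 with 0.5% Tween 20, was applied one day after sowing.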

[8] = test system: Amaranthus retoflexus (AMARE); assay: as above; settings: Amaranthus retroflexus, 312 h
Procedure, shortened: as §2

[9] = test system: Setaria faberi (SETFA); assay: as above; settings: 312 h
Procedure, shortened: as §2

[10] = test system: Echinochloa crus-galli (ECHCG); assay: as above; settings: 312 h
Procedure, shortened: as §2

[11] = test system: Alopecurus myosuroides (ALOMY); assay: as above; settings: 312 h
Procedure, shortened: as §2

[12] = test system: Ipomea hederaceae (IPOHE); assay: as above; settings: Ipomoea hederacea, 312 h
Procedure, shortened: as §2

[13] = Rate 1,000 g/ha, post-emergence spray, evaluated after 13 days (100=total damage to plant; 0=no damage to plant), read-out: Percentage damage caused to weed species, post-emergence, SOLNI
[14] = Rate 1,000 g/ha, post-emergence spray, evaluated after 13 days (100=total damage to plant; 0=no damage to plant), read-out: Percentage damage caused to weed species, post-emergence, AMARE
[15] = Rate 1,000 g/ha, post-emergence spray, evaluated after 13 days (100=total damage to plant; 0=no damage to plant), read-out: Percentage damage caused to weed species, post-emergence, SETFA
[16] = Rate 1,000 g/ha, post-emergence spray, evaluated after 13 days (100=total damage to plant; 0=no damage to plant), read-out: Percentage damage caused to weed species, post-emergence, ECHCG
[17] = Rate 1,000 g/ha, post-emergence spray, evaluated after 13 days (100=total damage to plant; 0=no damage to plant), read-out: Percentage damage caused to weed species, post-emergence, ALOMY
[18] = Rate 1,000 g/ha, post-emergence spray, evaluated after 13 days (100=total damage to plant; 0=no damage to plant), read-out: Percentage damage caused to weed species, post-emergence, IPOHE
[19] = pre-emergence, rate 1,000 g/ha, evaluated after 13 days (100=total damage to plant; 0=no damage), read-out: Percentage damage caused to weed species, SOLNI
[20] = pre-emergence, rate 1,000 g/ha, evaluated after 13 days (100=total damage to plant; 0=no damage), read-out: Percentage damage caused to weed species, AMARE
[21] = pre-emergence, rate 1,000 g/ha, evaluated after 13 days (100=total damage to plant; 0=no damage), read-out: Percentage damage caused to weed species, SETFA
[22] = pre-emergence, rate 1,000 g/ha, evaluated after 13 days (100=total damage to plant; 0=no damage), read-out: Percentage damage caused to weed species, ECHCG
[23] = pre-emergence, rate 1,000 g/ha, evaluated after 13 days (100=total damage to plant; 0=no damage), read-out: Percentage damage caused to weed species, ALOMY
[24] = pre-emergence, rate 1,000 g/ha, evaluated after 13 days (100=total damage to plant; 0=no damage), read-out: Percentage damage caused to weed species, IPOHE
[25] = post-emergence, 1,000 g/ha, evaluated after 13 days (100=total damage; 0=no damage), read-out: Percentage damage caused to weed species, SOLNI
[26] = post-emergence, 1,000 g/ha, evaluated after 13 days (100=total damage; 0=no damage), read-out: Percentage damage caused to weed species, AMARE
[27] = post-emergence, 1,000 g/ha, evaluated after 13 days (100=total damage; 0=no damage), read-out: Percentage damage caused to weed species, SETFA
[28] = post-emergence, 1,000 g/ha, evaluated after 13 days (100=total damage; 0=no damage), read-out: Percentage damage caused to weed species, ECHCG
[29] = post-emergence, 1,000 g/ha, evaluated after 13 days (100=total damage; 0=no damage), read-out: Percentage damage caused to weed species, ALOMY
[30] = post-emergence, 1,000 g/ha, evaluated after 13 days (100=total damage; 0=no damage), read-out: Percentage damage caused to weed species, IPOHE
[31] = pre-emergence, 1,000 g/ha, evaluated after 13 days (100=total damage; 0=no damage), read-out: Percentage damage SOLNI
[32] = pre-emergence, 1,000 g/ha, evaluated after 13 days (100=total damage; 0=no damage), read-out: Percentage damage AMARE
[33] = pre-emergence, 1,000 g/ha, evaluated after 13 days (100=total damage; 0=no damage), read-out: Percentage damage SETFA
[34] = pre-emergence, 1,000 g/ha, evaluated after 13 days (100=total damage; 0=no damage), read-out: Percentage damage ECHCG
[35] = pre-emergence, 1,000 g/ha, evaluated after 13 days (100=total damage; 0=no damage), read-out: Percentage damage ALOMY
[36] = pre-emergence, 1,000 g/ha, evaluated after 13 days (100=total damage; 0=no damage), read-out: Percentage damage IPOHE

Structure (SMILES) | pest or weed control at 1000 g/ha [1, 13] [%] | pest or weed control at 1000 g/ha [2, 14] [%] | pest or weed control at 1000 g/ha [3, 15] [%] | pest or weed control at 1000 g/ha [4, 16] [%] | pest or weed control at 1000 g/ha [5, 17] [%] | pest or weed control at 1000 g/ha [6, 18] [%] | pest or weed control at 1000 g/ha [7, 19] [%] | pest or weed control at 1000 g/ha [8, 20] [%] | pest or weed control at 1000 g/ha [9, 21] [%] | pest or weed control at 1000 g/ha [10, 22] [%] | pest or weed control at 1000 g/ha [11, 23] [%] | pest or weed control at 1000 g/ha [12, 24] [%] | pest or weed control at 1000 g/ha [1, 25] [%] | pest or weed control at 1000 g/ha [2, 26] [%] | pest or weed control at 1000 g/ha [3, 27] [%] | pest or weed control at 1000 g/ha [4, 28] [%] | pest or weed control at 1000 g/ha [5, 29] [%] | pest or weed control at 1000 g/ha [6, 30] [%] | pest or weed control at 1000 g/ha [7, 31] [%] | pest or weed control at 1000 g/ha [8, 32] [%] | other results
COC(=O)c1nc(-c2ccc(OC)cc2C)nc(NCc2ccco2)c1Cl [Compound 251-48, 5-Chloro-4-(furan-2-yl-methylamino)-2-(4-methoxy-2-methyl-pheny)-6-methoxy-carbonylpyrimidine] | 20 | 0 | 0 | 0 | 0 | 0 | 0 | 0 | 0 | 0 | 0 | 0 |  |  |  |  |  |  |  |  | 
CCC(C)N(Cc1ccccc1)c1nc(C2CC2)nc(C(=O)OC)c1Cl (stereo not drawn) [Compound 148-60, 4-(N-But-2-yl-N-phenylmethyl-amino)-5-chloro-2-cyclopropyl-6-methoxycarbonyl-pyrimidine] | 80 | 100 | 40 | 0 | 10 | 90 | 80 | 80 | 0 | 0 | 0 | 30 |  |  |  |  |  |  |  |  | 
COC(=O)c1nc(C2CC2)nc(NCc2ccc(N)cc2)c1Cl [Compound 4-86, 4-(4-Aminophenyl-methylamino)-5-chloro-2-cyclopropyl-6-methoxycarbonyl-pyrimidine] |  |  |  |  |  |  |  |  |  |  |  |  | 100 | 100 | 90 | 70 | 50 | 100 | 100 | 100 | pest or weed control at 1000 g/ha [9, 33]: 80%; pest or weed control at 1000 g/ha [10, 34]: 70%; pest or weed control at 1000 g/ha [11, 35]: 60%; pest or weed control at 1000 g/ha [12, 36]: 100%
COC(=O)c1nc(C2CC2)nc(NCC(O)c2ccccc2)c1Cl (stereo not drawn) [Compound 4-257, 5-Chloro-2-cyclopropyl-4-(2-hydroxy-2-phenyl-ethylamino)-6-methoxycarbonyl-pyrimidine] |  |  |  |  |  |  |  |  |  |  |  |  | 90 | 100 | 80 | 70 | 60 | 100 | 90 | 100 | pest or weed control at 1000 g/ha [9, 33]: 80%; pest or weed control at 1000 g/ha [10, 34]: 60%; pest or weed control at 1000 g/ha [11, 35]: 40%; pest or weed control at 1000 g/ha [12, 36]: 100%
COC(=O)c1nc(-c2cccc(OC)c2F)nc(NCc2ccco2)c1Cl [Compound 249-48, 5-Chloro-2-(2-fluoro-3-methoxyphenyl)-4-(furan-2-ylmethyl-amino)-6-methoxy-carbonylpyrimidine] | 70 | 70 | 0 | 0 | 0 | 30 | 30 | 70 | 20 | 0 | 0 | 20 |  |  |  |  |  |  |  |  | 
COC(=O)c1nc(C2CC2)nc(NCc2ccc(Cl)cc2)c1Cl [Compound 4-63, 5-Chloro-4-(4-chlorophenylmethyl-amino)-2-cyclopropyl-6-methoxycarbonyl-pyrimidine] |  |  |  |  |  |  |  |  |  |  |  |  | 90 | 100 | 80 | 50 | 40 | 80 | 60 | 60 | pest or weed control at 1000 g/ha [9, 33]: 20%; pest or weed control at 1000 g/ha [10, 34]: 20%; pest or weed control at 1000 g/ha [11, 35]: 20%; pest or weed control at 1000 g/ha [12, 36]: 60%
